Laboratory results reported in ChEMBL document CHEMBL1201862, “PubChem BioAssay data set” (2004).
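Step 1: Grow cells in 96-well plates. Step 2: Expose to compound for 48 hours at 5 concentrations. Step 3: Interpolate endpoints linearly; if unreached, use highest concentration. GI50: concentration for 50% inhibition of growth.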 Calls of active or inactive are those of the source. Rule as the data show it: active = GI50 up to about 1.1 µM and inactive = higher.

Assays:
Assay in all cases: NCI tumour cell line growth inhibition, 48 h
[1] = system: NCI-H226
[2] = system: CCRF-CEM
[3] = system: OVCAR-5
[4] = system: KM12
[5] = system: OVCAR-4
[6] = system: SK-OV-3
[7] = system: NCI-H460
[8] = system: UACC-257
[9] = system: TK-10
[10] = system: HCT-116
[11] = system: SK-MEL-28
[12] = system: LOX IMVI
[13] = system: NCI-H522
[14] = system: SR
[15] = system: UACC-62
[16] = system: SF-295
[17] = system: NCI-H23
[18] = system: EKVX
[19] = system: IGROV-1

Row | Structure (SMILES) | GI50 [1] | GI50 [2] | GI50 [3] | GI50 [4] | GI50 [5] | GI50 [6] | GI50 [7] | GI50 [8] | GI50 [9] | GI50 [10] | GI50 [11] | GI50 [12] | GI50 [13] | GI50 [14] | GI50 [15] | GI50 [16] | GI50 [17] | GI50 [18] | GI50 [19]
1 | O=c1c(C(c2cc(OCc3ccccc3)cc(OCc3ccccc3)c2)c2c(O)oc3ccccc3c2=O)c(O)oc2ccccc12 | 9.64 µM (inactive) | 2.42 µM (inactive) | 11.8 µM (inactive) | 4.19 µM (inactive) | 4.97 µM (inactive) | 6.58 µM (inactive) | 3.45 µM (inactive) | 13 µM (inactive) | 11.5 µM (inactive) | 3.39 µM (inactive) | 12.7 µM (inactive) | 15.3 µM (inactive) | 8.61 µM (inactive) | 3.28 µM (inactive) | 4.02 µM (inactive) | 5.42 µM (inactive) | 4.42 µM (inactive) | 9.04 µM (inactive) | 14.1 µM (inactive)
2 | CC(C)(C)OC(=O)c1cnc(Cl)cn1 | 34.9 µM (inactive) | 18.7 µM (inactive) | 83.4 µM (inactive) | 22.3 µM (inactive) | 28.1 µM (inactive) | > 100 µM (inactive) | 49.7 µM (inactive) | 30.4 µM (inactive) | > 100 µM (inactive) | 33.6 µM (inactive) | 37.8 µM (inactive) | 23.8 µM (inactive) | 1.05 µM (active) | 45 µM (inactive) | 31.8 µM (inactive) | > 100 µM (inactive) | 20.7 µM (inactive) | 24.2 µM (inactive) | 23.4 µM (inactive)
3 | O=C(O)C1(C(=O)O)CC1(C(=O)O)C(=O)O | > 100 µM (inactive) | > 100 µM (inactive) | > 100 µM (inactive) | > 100 µM (inactive) | > 100 µM (inactive) | > 100 µM (inactive) | > 100 µM (inactive) | > 100 µM (inactive) | > 100 µM (inactive) | > 100 µM (inactive) | > 100 µM (inactive) | > 100 µM (inactive) | > 100 µM (inactive) | > 100 µM (inactive) | > 100 µM (inactive) | > 100 µM (inactive) | > 100 µM (inactive) | > 100 µM (inactive) | > 100 µM (inactive)
4 | O=C1C=C/C(=N/c2ccccc2)c2ccccc21 | 11.4 µM (inactive) | 4.29 µM (inactive) | 17.9 µM (inactive) | 11.4 µM (inactive) | 11.9 µM (inactive) | 20.4 µM (inactive) | 3.32 µM (inactive) | 2.64 µM (inactive) | 16.9 µM (inactive) | 12.1 µM (inactive) | 20.3 µM (inactive) | 4.18 µM (inactive) | 10.2 µM (inactive) | 11.4 µM (inactive) | 3.52 µM (inactive) | 7.4 µM (inactive) | 2.62 µM (inactive) | 2.06 µM (inactive) | 5.25 µM (inactive)
5 | CCOC(=O)C(CNc1ccc(O)cc1)NC(=O)c1ccccc1 (stereo not given) | > 100 µM (inactive) | 32.3 µM (inactive) | > 100 µM (inactive) | > 100 µM (inactive) | > 66.2 µM (inactive) | > 100 µM (inactive) | > 100 µM (inactive) | > 100 µM (inactive) | > 100 µM (inactive) | > 100 µM (inactive) | > 100 µM (inactive) | 99.8 µM (inactive) | 75.3 µM (inactive) | > 61 µM (inactive) | > 53.7 µM (inactive) | > 100 µM (inactive) | > 100 µM (inactive) | > 100 µM (inactive) | > 100 µM (inactive)
